Results taken from US6060257A, “Tumor rejection antigens presented by HLA-B44 molecules, and uses thereof” (Ludwig Institute for Cancer Research, priority 1996, dated 2000).

Molecular target: T1, HLA-B*4402 (Homo sapiens, UniProt P01889, A223V/A65T/A93T/A95T/D201E/D98Y/E176V/E187L/E204Q/E69K/G107R/H137Y/K202T/L105A/L119I/N104T/N87E/Q56L/Q94N/R106L/R155S/R180D/S101N/S121R/S35A/S48T/T118I/V36M/W191S/Y140D/Y91S)
T1 construct: expressed in transfected cells; host or cells: C1R cells (MHC class I negative, EBV-transformed lymphoblastoid)
Experiment: Competitive assay: inhibition of CTL 159/5 lysis of C1R-B*4402 cells sensitized with SEQ ID NO: 18
Type: cell-based
Conditions: C1R-B44 cells (B*4402 and B*4403 transfectants)

“Gin Glu Glu Gly Pro Ser Thr Phe [SEQ ID NO: 20]” was tested, and the “inhibition of lysis of C1R-B44 cells (indicates binding to HLA-B44 molecules)” value was “did inhibit lysis”.
